Measured values from patent publication US8309608B2, “Use of eNOS transcription enhancers in the cell therapy of ischemic heart diseases” (Sanofi-Aventis Deutschland GmbH, priority 2003, dated 2012).

How the values were obtained:
[1] = system: athymic NMRI nude mice, hind limb ischemia; test: in vivo hind limb ischemia model in mice (laser Doppler blood flow after injection of pretreated cells); conditions: 5×10^5 cells/mouse i.v., measured after two weeks
Protocol: For incubation with the eNOS transcription enhancer 4-fluoro-N-(indan-2-yl)benzamide, 1 ml of a suspension of 1000000 stem and progenitor cells in 1 ml of X-Vivo 10 cell culture medium was mixed with 1 μl of a solution of 4-fluoro-N-(indan-2-yl)benzamide in dimethylsulfoxide (DMSO) which had been prepared by dissolution of 1.275 mg of 4-fluoro-N-(indan-2-yl)benzamide in 1 ml of DMSO. The concentration of 4-fluoro-N-(indan-2-yl)benzamide in the resulting mixture was 5 μM. […]
The neovascularization capacity of bone marrow stem and progenitor cells was investigated in a murine model of hind limb ischemia by use of 8 to 10 week old athymic NMRI nude mice (The Jackson Laboratory, Bar Harbor, Me., USA) weighing 18 to 22 g. […] After two weeks the limb perfusion was determined. Specifically, the ischemic (right) limb/normal (left) limb blood flow ratio was measured using a laser Doppler blood flow meter (Laser Doppler Perfusion Imager System, MoorLDI-Mark 2, Moor Instruments, Wilmington, Del., USA). […] After twice recording laser Doppler color images, the average perfusions of the ischemic and non-ischemic limb were calculated on the basis of colored histogram pixels. To minimize variables including ambient light and temperature, calculated perfusion was expressed as the ratio of ischemic to non-ischemic hind limb perfusion. […]

[2] = system: bone marrow stem and progenitor cells; test: migratory capacity of bone marrow stem and progenitor cells in response to SDF-1 (modified Boyden chamber); assay type: cell-based, human; conditions: 100 ng/ml SDF-1
Protocol: For incubation with the eNOS transcription enhancer 4-fluoro-N-(indan-2-yl)benzamide, 1 ml of a suspension of 1000000 stem and progenitor cells in 1 ml of X-Vivo 10 cell culture medium was mixed with 1 μl of a solution of 4-fluoro-N-(indan-2-yl)benzamide in dimethylsulfoxide (DMSO) which had been prepared by dissolution of 1.275 mg of 4-fluoro-N-(indan-2-yl)benzamide in 1 ml of DMSO. The concentration of 4-fluoro-N-(indan-2-yl)benzamide in the resulting mixture was 5 μM. For incubation with the eNOS transcription enhancer 4-fluoro-N-(indan-2-yl)benzamide and the eNOS inhibitor N^G-monomethyl-L-arginine (L-NMMA), in addition to 4-fluoro-N-(indan-2-yl)benzamide, L-NMMA (Sigma, St. Louis, Mo., USA) was added to the cell suspension to give a resulting mixture with a 4-fluoro-N-(indan-2-yl)benzamide concentration of 5 μM and an L-NMMA concentration of 1 mM. Incubation was carried for 18 hours at a temperature of 37° C. under an atmosphere of air containing 5% of carbon dioxide. The cells were isolated by centrifugation, washed two times with PBS and resuspended in X-Vivo 10.
For assessing the migratory capacity of bone marrow stem and progenitor cells, a total of 1×10^6 bone marrow stem and progenitor cells were resuspended in 250 μl of X-Vivo 10 and placed in the upper chamber of a modified Boyden chamber filled with matrigel (BioCoat invasion assay, 8 μm pore size, Becton Dickinson Labware, Two Oak Park, Bedford, Mass., USA). Then, the chamber was placed in a 24-well culture dish containing 500 μl endothelial basic medium (EBM) supplemented with either phosphate buffered saline (PBS), 50 ng/ml VEGF, or 100 ng/ml SDF-1. After 24 hours incubation at 37° C., transmigrated cells were counted.

[3] = system: eNOS promoter (eNOS transcription); test: luciferase assay for activation of eNOS transcription; assay type: cell-based; conditions: human endothelial cell line with eNOS promoter-luciferase construct, 18 hours incubation; for TIR(max) value (maximum transcription induction ratio): ratio vs solvent alone; for EC50: read-out: EC50 value of transcription induction ratio
Protocol: Activation of eNOS transcription was measured as described in detail in Li et al., Activation of protein kinase C alpha and/or epsilon enhances transcription of the human endothelial nitric oxide synthase gene, Mol. Pharmacol. 1998, 53:630-637. Briefly, a 3.5 kB long fragment 5′ of the starting codon of the eNOS gene was cloned, sequenced and cloned in firefly luciferase expression plasmids to monitor activation of the eNOS promoter by reporter gene activity. A human endothelial cell line stable transfected and expressing this promoter-reporter construct was used for compound testing. Cells were incubated for 18 hours with compounds. All compounds were dissolved before in sterile dimethylsulfoxide (DMSO). A final concentration of 0.5% DMSO in complete medium was allowed. Induction of reporter gene expression in these cells was measured using a standard luciferase assay system (Promega, Madison, Wis., USA; Cat. No E150) according to the manufacturer's instructions. Luciferase induction in cells incubated with compounds were compared to those incubated with solvent alone. The ratio of both activities (transcription induction ratio, TIR) was plotted as a function of compound concentration. Typically, TIR values started at low concentrations at a ratio of 1, indicating no compound effect, and extended up to a maximum TIR value TIR(max) which indicates the increase of the eNOS transcription. EC50 values of transcription induction ratios as a function of compound concentration were determined graphically.

melting point [°C] | SMILES | laser Doppler-derived relative blood flow (ratio ischemic limb/normal limb) ([1]; cells from the patients treated for 18 hours with 5 μM compound and 1 mM L-NMMA) [%] | laser Doppler-derived relative blood flow (ratio ischemic limb/normal limb) ([1]; cells from the patients treated for 18 hours with 5 μM compound) [%] | migratory response to SDF-1 ([2]; cells from the healthy controls, 18 hours of treatment with 5 μM compound) | migratory response to SDF-1 ([2]; cells from the healthy controls, 18 hours of treatment with 5 μM compound, listed as 4-fluoro-(N-indan-2-yl)benzamide) | migratory response to SDF-1 ([2]; cells from the patients, 18 hours of treatment with 5 μM compound and 1 mM L-NMMA) | migratory response to SDF-1 ([2]; cells from the patients, 18 hours of treatment with 5 μM compound) | TIR(max) value (maximum transcription induction ratio) [3] | EC50 [3] [nM]
167 | O=C(NC1Cc2ccccc2C1)c1ccc(F)cc1 [4-fluoro-N-(indan-2-yl)benzamide] | 39.7 ± 10.3 | 59.1 ± 11.6 | 111.2±38.5 ×1000 migrated cells | 74.3±21.5 ×1000 migrated cells | 23.9±7.4 ×1000 migrated cells | 74.0±20.7 ×1000 migrated cells | 4.10 | 800
147.5 | O=C(NC1Cc2ccccc2C1)c1ccc2c(c1)OC(F)(F)O2 [2,2-difluorobenzo[1,3]dioxol-5-carboxylic acid indan-2-ylamide] |  |  |  |  |  |  | 2.7 | 140
